This is an account of results in patent publication US20230117034A1, “PYRAZOLOTRIAZINES” (Bayer Aktiengesellschaft, priority 2019, published 2023).

Assay [1] concerns MDA-MB-231, human breast cancer cells. Description: Proliferation assay MDA-MB-231 (crystal violet, 4 days). It is filed as cell-based. Particulars: Homo sapiens, MDA-MB-231, 96 h, MDA-MB-231 cells, median, read-out: Prolif-MDA MB-231, IC50-[mol/l] (median). Summed up:
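Crystal violet proliferation read-out after 4 days of compound exposure (0.01-10 µmol/L; solvent 0.1% DMSO). Extinction at 595 nm, set between zero-point (0%) and vehicle (100%), fitted with 4 parameters to give IC50.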

Another assay has as its target T1, CDK2/CycE (Homo sapiens, UniProt P24941).
T1 construct: purchased ProQinase GmbH (Freiburg, Germany); host or cells: insect cells (Sf9)
Kind of assay: CDK2/CycE kinase assay (TR-FRET, 2 mM ATP). It is filed as biochemical. Particulars: 2 mM ATP (high ATP); median; read-out: CDK2/CyclinE, 2 mM ATP (high ATP), IC50 (median). Summed up: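 Biotin-peptide phosphorylation (0.75 µM substrate, 2 mM ATP final, 25 min, 22 °C) by Sf9-expressed GST-CDK2/GST-CycE, after a 15-min compound pre-binding step. Inhibition scaled between enzyme-free (100%) and uninhibited (0%) wells.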
(In general: TR-FRET usually uses a lanthanide donor and a delayed reading to cut background.)

Assay [2] has as its system BRCA1 mRNA expression in MDA-MB-231 cells. Kind of assay: qRT-PCR assay: BRCA1 mRNA expression in MDA-MB-231. Type of assay: cell-based, human. Particulars: Homo sapiens, MDA-MB-231, Inhibition of BRCA1 mRNA expression in MDA-MB-231 cells; median; read-out: RTqPCR-MDA-MB-231, IC50, BRCA1 (median). Summed up:
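Human breast cancer cells, 200,000/well, were treated with test agents for 24 h without interruption after a 24 h settling period. Gene expression came from qPCR on cDNA made from 600 ng RNA, relative to GAPDH.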

As to `COc1ccccc1-c1nnc(CNc2nc(N3CCN(C)CC3)nc3c(C4CC4(F)F)cnn23)[nH]1` (centres unmarked) [Example 430, 8-(2,2-difluorocyclopropyl)-N-{[5-(2-methoxyphenyl)-4H-1,2,4-triazol-3-yl]methyl}-2-(4-methylpiperazin-1-yl)pyrazolo[1,5-a][1,3,5]triazin-4-amine], the IC50 was 0.0815 µM in assay [1], greater than 20 µM at CDK2/CycE and 0.01 µM in assay [2].
In the same order, the values of `Clc1cc2nc(CNc3nc(N4CCOCC4)nc4c(-c5cncs5)cnn34)[nH]c2cc1Cl` [Example 443, N-[(5,6-dichloro-1H-benzimidazol-2-yl)methyl]-2-(morpholin-4-yl)-8-(1,3-thiazol-5-yl)pyrazolo[1,5-a][1,3,5]triazin-4-amine] are 0.00617 µM, greater than 20 µM and 0.00221 µM.
`Fc1cccc2[nH]c(CNc3nc(N4CCN5CCC4CC5)nc4c(C(F)(F)F)cnn34)nc12` [Example 410, 2-(1,4-diazabicyclo[3.2.2]nonan-4-yl)-N-[(4-fluoro-1H-benzimidazol-2-yl)methyl]-8-(trifluoromethyl)pyrazolo[1,5-a][1,3,5]triazin-4-amine]: the IC50 came out at 0.00827 µM in assay [1], 10 µM at CDK2/CycE and 0.00342 µM in assay [2].
In the same order, the values of `CN1CCN(c2nc(NCc3nc4c(F)c(F)ccc4[nH]3)n3ncc(C4CC4(F)F)c3n2)CC1` (centres unmarked) [Example 429, N-[(4,5-difluoro-1H-benzimidazol-2-yl)methyl]-8-(2,2-difluorocyclopropyl)-2-(4-methylpiperazin-1-yl)pyrazolo[1,5-a][1,3,5]triazin-4-amine] are 0.0324 µM, greater than 20 µM and 0.00747 µM.
Turning to `Cc1cnn2c(NCc3nc4c(F)c(F)ccc4[nH]3)nc(N3CCN(C)CC3)nc12` [Example 394, N-[(4,5-difluoro-1H-benzimidazol-2-yl)methyl]-8-methyl-2-(4-methylpiperazin-1-yl)pyrazolo[1,5-a][1,3,5]triazin-4-amine], the IC50 in assay [1] was 0.0198 µM; at CDK2/CycE, greater than 20 µM; in assay [2], 0.0114 µM.
In the same order, the values of `Fc1ccc2[nH]c(CNc3nc(N4CCOCC4)nc4c(CC(F)F)cnn34)nc2c1F.O=C(O)C(F)(F)F` [Example 425, trifluoroacetic acid N-[(4,5-difluoro-1H-benzimidazol-2-yl)methyl]-8-(2,2-difluoroethyl)-2-(morpholin-4-yl)pyrazolo[1,5-a][1,3,5]triazin-4-amine] are 0.00876 µM, greater than 20 µM and 0.00268 µM.
In the same order, the values of `Clc1cc2nc(CNc3nc(N4CCOCC4)nc4c(-c5ccnnc5)cnn34)[nH]c2cc1Cl.O=C(O)C(F)(F)F` [Example 440, trifluoroacetic acid N-[(5,6-dichloro-1H-benzimidazol-2-yl)methyl]-2-(morpholin-4-yl)-8-(pyridazin-4-yl)pyrazolo[1,5-a][1,3,5]triazin-4-amine] are 0.0214 µM, greater than 20 µM and 0.0027 µM.
Regarding `FC(F)(F)c1cnn2c(NCc3nnc(-c4ccccc4)[nH]3)nc(N3CCOCC3)nc12` [Example 427, 2-(morpholin-4-yl)-N-[(5-phenyl-4H-1,2,4-triazol-3-yl)methyl]-8-(trifluoromethyl)pyrazolo[1,5-a][1,3,5]triazin-4-amine], the IC50 amounted to 0.113 µM in assay [1], 5.23 µM at CDK2/CycE and 0.045 µM in assay [2].
As to `Fc1ccc2[nH]c(CNc3nc(N4CCOCC4)nc4c(-c5ccnnc5)cnn34)nc2c1F` [Example 417, N-[(4,5-difluoro-1H-benzimidazol-2-yl)methyl]-2-(morpholin-4-yl)-8-(pyridazin-4-yl)pyrazolo[1,5-a][1,3,5]triazin-4-amine], the IC50 is 0.0831 µM in assay [1], greater than 20 µM at CDK2/CycE and 0.0146 µM in assay [2].
For `CN(CC(C)(C)O)c1nc(NCc2nc3c(F)c(F)ccc3[nH]2)n2ncc(C(F)(F)F)c2n1` [Example 402, 1-{[4-{[(4,5-difluoro-1H-benzimidazol-2-yl)methyl]amino}-8-(trifluoromethyl)pyrazolo[1,5-a][1,3,5]triazin-2-yl](methyl)amino}-2-methylpropan-2-ol], the results for the IC50 (in assay [1]; on CDK2/CycE; in assay [2]) were 0.00856 µM, 9.56 µM and 0.00381 µM, respectively.
In the same order, the values of `Fc1ccc2[nH]c(CNc3nc(N4CCOCC4)nc4c(-c5nccs5)cnn34)nc2c1F` [Example 413, N-[(4,5-difluoro-1H-benzimidazol-2-yl)methyl]-2-(morpholin-4-yl)-8-(1,3-thiazol-2-yl)pyrazolo [1,5-a][1,3,5]triazin-4-amine] are 0.298 µM, greater than 20 µM and 0.0827 µM.
For the molecule `COc1ccccc1-c1nnc(CNc2nc(N3CCOCC3)nc3c(Br)cnn23)[nH]1` [Example 61, 8-bromo-N-{[5-(2-methoxyphenyl)-4H-1,2,4-triazol-3-yl]methyl}-2-(morpholin-4-yl)pyrazolo[1,5-a][1,3,5]triazin-4-amine], the IC50 in assay [1] turned out to be 0.0308 µM; at CDK2/CycE, 9.06 µM; in assay [2] it was 0.00954 µM.
In the case of `CCc1cnn2c(NCc3nc4ccccc4[nH]3)nc(N3CCOCC3)nc12` [Example 431, N-[(1H-benzimidazol-2-yl)methyl]-8-ethyl-2-(morpholin-4-yl)pyrazolo[1,5-a][1,3,5]triazin-4-amine], the values for the IC50 (in assay [1]; at CDK2/CycE; in assay [2]) were 0.0284 µM, 1.59 µM and 0.00417 µM, respectively.
Turning to `CN1CCN(c2nc(NCc3nc4c(F)c(F)ccc4[nH]3)n3ncc(CC(F)(F)F)c3n2)CC1` [Example 437, N-[(4,5-difluoro-1H-benzimidazol-2-yl)methyl]-2-(4-methylpiperazin-1-yl)-8-(2,2,2-trifluoroethyl) pyrazolo[1,5-a][1,3,5]triazin-4-amine], the figures for the IC50 (in assay [1]; at CDK2/CycE; in assay [2]) were 0.0458 µM, greater than 20 µM and 0.00619 µM, respectively.
For `Cc1cnn2c(NCc3nc4c(F)c(F)ccc4[nH]3)nc(N(C)CC(C)(C)O)nc12` [Example 395, 1-[(4-{[(4,5-difluoro-1H-benzimidazol-2-yl)methyl]amino}-8-methylpyrazolo[1,5-a][1,3,5]triazin-2-yl)(methyl)amino]-2-methylpropan-2-ol], the IC50 in assay [1] was 0.034 µM; at CDK2/CycE, greater than 20 µM; in assay [2], 0.0147 µM.
In the same order, the values of `CCc1cnn2c(NCc3nc4c(F)c(F)ccc4[nH]3)nc(N3CCOCC3)nc12` [Example 432, N-[(4,5-difluoro-1H-benzimidazol-2-yl)methyl]-8-ethyl-2-(morpholin-4-yl)pyrazolo[1,5-a][1,3,5]triazin-4-amine] are 0.00853 µM, 7.57 µM and 0.00176 µM.
In the same order, the values of `FC(F)n1cc(-c2cnn3c(NCc4nc5cc(Cl)c(Cl)cc5[nH]4)nc(N4CCOCC4)nc23)cn1` [Example 423, N-[(5,6-dichloro-1H-benzimidazol-2-yl)methyl]-8-[1-(difluoromethyl)-1H-pyrazol-4-yl]-2-(morpholin-4-yl)pyrazolo[1,5-a][1,3,5]triazin-4-amine] are 0.0182 µM, greater than 20 µM and 0.0062 µM.
In the same order, the values of `Fc1ccc2[nH]c(CNc3nc(N4CCOCC4)nc4c(-c5cncs5)cnn34)nc2c1F.O=C(O)C(F)(F)F` [Example 442, trifluoroacetic acid N-[(4,5-difluoro-1H-benzimidazol-2-yl)methyl]-2-(morpholin-4-yl)-8-(1,3-thiazol-5-yl)pyrazolo[1,5-a][1,3,5]triazin-4-amine] are 0.00638 µM, greater than 20 µM and 0.000738 µM.
With `Clc1cc2nc(CNc3nc(N4CCOCC4)nc4c(-c5cscn5)cnn34)[nH]c2cc1Cl` [Example 424, N-[(5,6-dichloro-1H-benzimidazol-2-yl)methyl]-2-(morpholin-4-yl)-8-(1,3-thiazol-4-yl)pyrazolo [1,5-a][1,3,5]triazin-4-amine], the IC50 in assay [1] is 0.0737 µM; on CDK2/CycE, greater than 20 µM.
In the same order, the values of `Cc1cnn2c(NCc3nc4ccccc4[nH]3)nc(N(C)CC(C)(C)O)nc12` [Example 397, 1-[(4-{[(1H-benzimidazol-2-yl)methyl]amino}-8-methylpyrazolo[1,5-a][1,3,5]triazin-2-yl)(methyl)amino]-2-methylpropan-2-ol] are 0.399 µM and 17.2 µM.
In the case of `Brc1cnn2c(NCc3nc4ccccc4[nH]3)nc(OC3CCNCC3)nc12` [Example 411, N-[(1H-benzimidazol-2-yl)methyl]-8-bromo-2-[(piperidin-4-yl)oxy]pyrazolo[1,5-a][1,3,5]triazin-4-amine], the IC50 in assay [1] is 0.138 µM; at CDK2/CycE, 16.3 µM.
Regarding `Brc1cnn2c(NCc3nc4ccccc4[nH]3)nc(OCC3CC3)nc12` [Example 408, N-[(1H-benzimidazol-2-yl)methyl]-8-bromo-2-(cyclopropylmethoxy)pyrazolo[1,5-a][1,3,5]triazin-4-amine], the IC50 in assay [1] was 0.741 µM; at CDK2/CycE, greater than 19.7 µM.
